Data published in patent publication US9120744B2, “Plasminogen activator inhibitor-1 inhibitors and methods of use thereof to modulate lipid metabolism” (THE REGENTS OF THE UNIVERSITY OF MICHIGAN, priority 2007, dated 2015).
Values belong to the molecule of their own block, whether it stands above or below them.

Columns and labels:
[1] = biological target: T1, recombinant active human PAI-1 (Homo sapiens (Human), UniProt P05121); assay: Fluorometric IC50 plate assay (PAI-1 inhibition of uPA, Z-Gly-Gly-Arg-AMC); assay type: biochemical; conditions: in vitro, PAI-1 1 nM, uPA 2.5 nM, pH 7.8, 10% DMSO; ND = not detected, e.g. no inhibition
active mouse PAI-1 = active mouse PAI-1 (Mus musculus (Mouse), UniProt P22777); assay: Ex vivo plasma Luminex assay, mouse plasma spiked with active mouse PAI-1; assay type: biochemical; conditions: mouse plasma spiked with active mouse PAI-1 3-4 ng/mL
PAI-1 [2] = biological target: T2, PAI-1 (Homo sapiens (Human), UniProt P05121); assay: Surface plasmon resonance, loss of PAI-1 binding to immobilized anhydrotrypsin; conditions: PAI-1 2 nM preincubated with compound, SPR; read-out: Apparent KD (nM) ± SEM
Target sequence in this assay (P05121 24-402): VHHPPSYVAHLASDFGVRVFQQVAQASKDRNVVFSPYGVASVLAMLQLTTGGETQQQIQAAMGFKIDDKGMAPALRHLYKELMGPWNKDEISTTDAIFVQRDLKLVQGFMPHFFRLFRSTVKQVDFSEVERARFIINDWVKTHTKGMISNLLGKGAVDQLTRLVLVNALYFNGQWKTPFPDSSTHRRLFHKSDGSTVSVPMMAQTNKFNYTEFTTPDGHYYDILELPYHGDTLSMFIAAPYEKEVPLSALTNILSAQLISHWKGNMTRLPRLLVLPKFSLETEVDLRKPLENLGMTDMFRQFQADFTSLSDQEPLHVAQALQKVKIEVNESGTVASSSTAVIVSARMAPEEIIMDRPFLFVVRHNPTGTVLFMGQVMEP

PAI-1 [3] = biological target: T2, PAI-1; conditions: cited from earlier work
Target sequence in this assay (P05121 24-402, species assumed): as the sequence (P05121 24-402) above

PAI-1 [4] = assay: PAI-1 activity assay in ex vivo plasma with and without vitronectin; assay type: biochemical; conditions: plasma of PAI-1 null or PAI-1/vitronectin null mice, 20 nM PAI-1
C57BL/6J and 129 mice = assay: Oral PAI-039 in chow for two weeks, plasma PAI-1 activity and lipid profiles; assay type: in vivo, mouse
PAI-1 null mice = assay: Oral PAI-039 in PAI-1 null mice, lipid analysis; assay type: in vivo, mouse; conditions: two weeks in chow
[5] = biological target: T1, recombinant active human PAI-1; assay: pH dependence of PAI-1 inhibition, fluorogenic uPA (or tPA) assay; assay type: biochemical; conditions: for effect of pH on PAI-1 inhibition (in words): pH 6.5 to 8.5
[6] = biological target: T1, recombinant active human PAI-1; assay: High throughput uPA chromogenic screen for PAI-1 inactivators; assay type: biochemical; conditions: 10 μM compound; hit = more than 3 standard deviations above control
[7] = biological target: T1, recombinant active human PAI-1; assay: Chromogenic uPA assay of PAI-1 inhibition (pGlu-Gly-Arg pNA); assay type: biochemical
PAI-1 [8] = biological target: T2, PAI-1; assay: SDS-PAGE analysis of PAI-1:plasminogen activator complex formation; assay type: biochemical; conditions: tannic acid 0-100 μM, uPA or tPA
Target sequence in this assay (P05121 24-402): as above

[9] = biological target: recombinant active human PAI-1 preincubated with vitronectin (Homo sapiens (Human), UniProt P05121); assay: Inhibition of vitronectin-bound PAI-1 by tannic acid, chromogenic uPA assay; assay type: biochemical; conditions: 5-fold molar excess of vitronectin
[10] = biological target: T1, recombinant active human PAI-1; assay: β-trypsin screening assay for PAI-1 inhibitors; assay type: biochemical; conditions: 10 μM compound; hit = more than 3 standard deviations above control;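 also: fluorogenic readout with PAI-1 and β-trypsin at 10:1 molar ratio, untreated PAI-1 wells set as 100% PAI-1 activity and β-trypsin alone as 0%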

T1 sequence (P05121 24-402): as above
active mouse PAI-1, sequence (P22777 23-402): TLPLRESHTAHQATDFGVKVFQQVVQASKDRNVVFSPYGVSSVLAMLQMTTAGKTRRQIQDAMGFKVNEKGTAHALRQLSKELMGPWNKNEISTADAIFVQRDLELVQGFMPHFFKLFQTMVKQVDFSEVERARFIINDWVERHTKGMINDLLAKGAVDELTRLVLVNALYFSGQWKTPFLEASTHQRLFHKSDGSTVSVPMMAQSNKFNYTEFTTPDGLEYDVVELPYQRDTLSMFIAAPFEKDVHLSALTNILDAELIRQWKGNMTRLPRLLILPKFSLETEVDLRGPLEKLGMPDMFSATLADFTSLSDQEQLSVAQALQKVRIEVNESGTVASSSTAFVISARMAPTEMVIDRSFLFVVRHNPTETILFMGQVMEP
recombinant active human PAI-1 preincubated with vitronectin, sequence (P05121 24-402): as the sequence (P05121 24-402) above
recombinant active human PAI-1 preincubated with vitronectin, sequence (P04004 20-478 partner): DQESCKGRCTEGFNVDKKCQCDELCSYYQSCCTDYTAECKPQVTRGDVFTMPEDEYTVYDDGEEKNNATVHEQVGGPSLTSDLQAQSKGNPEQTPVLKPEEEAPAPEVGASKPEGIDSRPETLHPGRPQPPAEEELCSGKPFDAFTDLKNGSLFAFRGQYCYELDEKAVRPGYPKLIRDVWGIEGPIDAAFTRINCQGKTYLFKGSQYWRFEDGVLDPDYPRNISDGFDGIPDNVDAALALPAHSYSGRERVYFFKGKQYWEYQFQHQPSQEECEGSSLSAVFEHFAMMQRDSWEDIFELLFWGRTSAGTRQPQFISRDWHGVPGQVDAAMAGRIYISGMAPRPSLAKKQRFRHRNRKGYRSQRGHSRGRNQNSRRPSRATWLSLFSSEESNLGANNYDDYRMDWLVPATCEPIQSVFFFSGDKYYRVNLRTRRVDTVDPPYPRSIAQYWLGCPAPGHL

- IC50 [1]: 0.05 µM
Structure (SMILES): O=C(O[C@H]1CC[C@@H](OC(=O)c2cc(O)c(O)c(O)c2)CC1)c1cc(O)c(O)c(O)c1 [CDE-061]

- IC50 [1]: 2200 µM
Structure (SMILES): COc1cc(C(=O)N(C)CCN(C)C(=O)c2cc(OC)c(O)c(OC)c2)cc(OC)c1O [CDE-064]

- IC50 [1]: 423 µM
Structure (SMILES): COc1cc(C(=O)N2CCN(C(=O)c3cc(OC)c(O)c(OC)c3)CC2)cc(OC)c1O [CDE-065]

- IC50 [1]: 48.3 µM
Structure (SMILES): CC(C)(COC(=O)c1cc(O)c(O)c(O)c1)COC(=O)c1cc(O)c(O)c(O)c1 [CDE-067]

- IC50 [1]: 32.7 µM
Structure (SMILES): CN(N(C)S(=O)(=O)c1ccc(O)c(O)c1)S(=O)(=O)c1ccc(O)c(O)c1 [CDE-068]

- IC50 [1]: 562 µM
Structure (SMILES): COc1cc(C(=O)OCCOC(=O)c2cc(OC)c(O)c(OC)c2)cc(OC)c1O [CDE-069]

- IC50 [1]: 0.07 µM
Structure (SMILES): CC(C)(C)OC(=O)NCC(COC(=O)c1cc(O)c(O)c(O)c1)OC(=O)c1cc(O)c(O)c(O)c1 (centres unmarked) [CDE-075]

- Kd (PAI-1 [2]): 5.3 ± 0.2 nM
Structure (SMILES): O=C(OCC(COC(=O)c1cc(O)c(O)c(O)c1)OC(=O)c1cc(O)c(O)c(O)c1)c1cc(O)c(O)c(O)c1 [CDE-082]

The remaining lines, values behind:

Structure (SMILES): O=S(=O)(NNS(=O)(=O)c1ccc(O)c(O)c1)c1ccc(O)c(O)c1 [CDE-059]
- IC50 [1]: 0.09 µM
- IC50 (active mouse PAI-1): 973 µM

Structure (SMILES): O=C(NCCNC(=O)c1ccc(O)c([N+](=O)[O-])c1)c1ccc(O)c([N+](=O)[O-])c1 [CDE-060]
- IC50 [1]: 236 µM

Structure (SMILES): O=C(O[C@H]1CC[C@H](OC(=O)c2cc(O)c(O)c(O)c2)CC1)c1cc(O)c(O)c(O)c1 [CDE-062]
- IC50 [1]: 332 µM

Structure (SMILES): O=C(NCCCNC(=O)c1cc(O)c(O)c(O)c1)c1cc(O)c(O)c(O)c1 [CDE-070]
- IC50 [1]: 269 µM

Structure (SMILES): O=S(=O)(NNS(=O)(=O)c1ccc(O)cc1)c1ccc(O)cc1 [CDE-072]
- IC50 [1]: 104 µM

Structure (SMILES): O=S(=O)(c1ccc(O)c(O)c1)N1CCCCN1S(=O)(=O)c1ccc(O)c(O)c1 [CDE-074]
- IC50 [1]: 1.71 µM

Structure (SMILES): O=C(O)C(=O)c1cn(Cc2ccccc2)c2ccc(-c3ccc(OC(F)(F)F)cc3)cc12 [PAI-039, tiplaxtinin]
- inhibition of vitronectin bound PAI-1 (in words) (PAI-1 [3]): does not inhibit vitronectin bound PAI-1
- PAI-1 inhibition in plasma with or without vitronectin (in words) (PAI-1 [4]): only inhibitory in plasma that lacks vitronectin
- HDL cholesterol increase (C57BL/6J and 129 mice; 129): 45%
- VLDL decrease (C57BL/6J and 129 mice; 129): 35%
- HDL cholesterol increase (C57BL/6J and 129 mice; C57BL/6J): 11%
- VLDL decrease (C57BL/6J and 129 mice; C57BL/6J): 49%
- plasma level of active PAI-1 (C57BL/6J and 129 mice; C57BL/6J mice, 5 mg PAI-039/gram of chow, two weeks): 0.37 ± 0.08 ng/mL
- VLDL average decrease (C57BL/6J and 129 mice; average of C57BL/6J and 129): 42%
- HDL higher, average increase for C57BL/6J and 129 mice (C57BL/6J and 129 mice; average of both strains): approximately 28%
- effect on metabolism (lipid profile) in PAI-1 null mice (in words) (PAI-1 null mice): no significant effect

Structure (SMILES): O=C(OC[C@H]1O[C@@H](OC(=O)c2cc(O)c(O)c(OC(=O)c3cc(O)c(O)c(O)c3)c2)[C@H](OC(=O)c2cc(O)c(O)c(OC(=O)c3cc(O)c(O)c(O)c3)c2)[C@@H](OC(=O)c2cc(O)c(O)c(OC(=O)c3cc(O)c(O)c(O)c3)c2)[C@@H]1OC(=O)c1cc(O)c(O)c(OC(=O)c2cc(O)c(O)c(O)c2)c1)c1cc(O)c(O)c(OC(=O)c2cc(O)c(O)c(O)c2)c1 [Tannic acid, tannic acid]
- IC50 ([5]; pH 6.5): 7.36 µM
- effect of pH on PAI-1 inhibition (in words) [5]: improved by increasing pH
- IC50 ([5]; pH 7.5): 7.15 µM
- IC50 ([5]; pH 8.5): 0.0091 µM
- screening hit: restoration of uPA activity [6]: positive hits
- IC50 ([7]; some experiments (not shown in FIG. 2)): 2.5 µM
- effect on PAI-1:PA complex formation (in words) (PAI-1 [8]): converts PAI-1 to a substrate for PAs
- IC50 (active mouse PAI-1): 9.68 µM
- inhibition of vitronectin-bound PAI-1 (in words) [9]: inhibited PAI-1 activity even when bound to vitronectin
- screening hit: restoration of β-trypsin activity [10]: demonstrate PAI-1 inhibitor activity

Structure (SMILES): O=C(Oc1cc(O)cc2c1C[C@@H](OC(=O)c1cc(O)c(O)c(O)c1)[C@@H](c1cc(O)c(O)c(O)c1)O2)c1cc(O)c(O)c(O)c1 [epigallocatechin 3,5 digallate]
- screening hit: restoration of uPA activity [6]: positive hits

Structure (SMILES): O=C(O)c1cc(O)c(O)c(O)c1 [gallic acid]
- effect of pH on PAI-1 inhibition (in words) [5]: increased with increasing pH to 8.5
- fold less active toward PAI-1 than tannic acid ([7]; FIG. 2): approximately 1000 fold
- fold less active toward PAI-1 than tannic acid ([7]; other data (not shown)): up to 4000 fold

Structure (SMILES): Oc1c(Cl)cc(Cl)c(Cl)c1Cc1c(O)c(Cl)cc(Cl)c1Cl [hexachlorophene]
- effect of pH on PAI-1 inhibition (in words) [5]: did not improve at pH 8.5 compared to pH 7.5
- screening hit: restoration of β-trypsin activity [10]: demonstrate PAI-1 inhibitor activity
